Test results: patent publication US8609653B2, “Azaindole compounds and methods for treating HIV” (priority 2011, dated 2013)
Like-named read-outs stand apart in the source and are kept apart here.

System: HIV
Experiment: MT4 assay: antiviral HIV activity in MT-4 cells
Type: cell-based
Conditions: read-out 96 hours later with cell titer glo, 10 point dose response
Procedure, shortened: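 Compounds tested in HTLV-1-transformed MT-4 cells for protection from HIV, with cytotoxicity run in parallel under the same conditions; CellTiter-Glo luminescence read 96 h later. IC50 from 10-point, 3–4-fold serial dilutions spanning >1000-fold, % inhibition relative to no-compound control, fitted by four-parameter logistic.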

[1] = Human immunodeficiency virus 1, MT4, 96 h, read-out: HIV MT4 Assay IC50 (μM), HTLV-1 transformed cell line MT-4
[2] = read-out: HIV MT4 Assay IC50, HTLV-1 transformed cell line MT-4

Row | SMILES | IC50 [1] | IC50 [2]
1 | COc1ccc(Cn2ccc3c(-c4ccc5c(c4)CCCO5)c(C(OC(C)(C)C)C(=O)O)c(C)nc32)cc1C(F)(F)F (centres unmarked) [Example 52, 2-(tert-butoxy)-2-(4-(chroman-6-yl)-1-(4-methoxy-3-(trifluoromethyl)benzyl)-6-methyl-1H-pyrrolo[2,3-b]pyridin-5-yl)acetic acid] | 0.37 µM | 
2 | Cc1ccc(F)c(Cn2ccc3c(-c4ccc5c(c4)CCCO5)c(C(OC(C)(C)C)C(=O)O)c(C)nc32)c1Cl (centres unmarked) [Example 53, 2-(tert-butoxy)-2-(1-(2-chloro-6-fluoro-3-methylbenzyl)-4-(chroman-6-yl)-6-methyl-1H-pyrrolo[2,3-b]pyridin-5-yl)acetic acid] | 0.055 µM | 
3 | Cc1ccc(F)cc1Cn1ccc2c(-c3ccc4c(c3)CCCO4)c(C(OC(C)(C)C)C(=O)O)c(C)nc21 (centres unmarked) [Example 54, 2-(tert-butoxy)-2-(4-(chroman-6-yl)-1-(5-fluoro-2-methylbenzyl)-6-methyl-1H-pyrrolo[2,3-b]pyridin-5-yl)acetic acid] | 0.045 µM | 
4 | COc1cccc(F)c1Cn1ccc2c(-c3ccc4c(c3)CCCO4)c(C(OC(C)(C)C)C(=O)O)c(C)nc21 (centres unmarked) [Example 55, 2-(tert-butoxy)-2-(4-(chroman-6-yl)-1-(2-fluoro-6-methoxybenzyl)-6-methyl-1H-pyrrolo[2,3-b]pyridin-5-yl)acetic acid] | 0.021 µM | 
5 | Cc1nc2c(ccn2Cc2c(F)cccc2Cl)c(-c2ccc3c(c2)CCCO3)c1C(OC(C)(C)C)C(=O)O (centres unmarked) [Example 56, 2-(tert-butoxy)-2-(1-(2-chloro-6-fluorobenzyl)-4-(chroman-6-yl)-6-methyl-1H-pyrrolo[2,3-b]pyridin-5-yl)acetic acid] | 0.025 µM | 
6 | Cc1nc2c(ccn2Cc2cccc(F)c2F)c(-c2ccc3c(c2)CCCO3)c1[C@H](OC(C)(C)C)C(=O)O [Example 57, (S)-2-(tert-butoxy)-2-(4-(chroman-6-yl)-1-(2,3-difluorobenzyl)-6-methyl-1H-pyrrolo[2,3-b]pyridin-5-yl)acetic acid] | 0.027 µM | 
7 | Cc1nc2c(ccn2Cc2cc(F)ccc2F)c(-c2ccc3c(c2)CCCO3)c1[C@H](OC(C)(C)C)C(=O)O [Example 58, (S)-2-(tert-butoxy)-2-(4-(chroman-6-yl)-1-(2,5-difluorobenzyl)-6-methyl-1H-pyrrolo[2,3-b]pyridin-5-yl)acetic acid] | 0.08 µM | 
8 | Cc1nc2c(ccn2Cc2ccc(C(F)(F)F)cc2F)c(-c2ccc3c(c2)CCCO3)c1C(OC(C)(C)C)C(=O)O (centres unmarked) [Example 59, 2-(tert-butoxy)-2-(4-(chroman-6-yl)-1-(2-fluoro-4-(trifluoromethyl)benzyl)-6-methyl-1H-pyrrolo[2,3-b]pyridin-5-yl)acetic acid] | 0.38 µM | 
9 | Cc1nc2c(ccn2Cc2cccc(OC(F)(F)F)c2)c(-c2ccc3c(c2)CCCO3)c1C(OC(C)(C)C)C(=O)O (centres unmarked) [Example 60, 2-(tert-butoxy)-2-(4-(chroman-6-yl)-6-methyl-1-(3-(trifluoromethoxy)benzyl)-1H-pyrrolo[2,3-b]pyridin-5-yl)acetic acid] | 0.181 µM | 
10 | COc1cccc(Cn2ccc3c(-c4ccc5c(c4)CCCO5)c(C(OC(C)(C)C)C(=O)O)c(C)nc32)c1 (centres unmarked) [Example 61, 2-(tert-butoxy)-2-(4-(chroman-6-yl)-1-(3-methoxybenzyl)-6-methyl-1H-pyrrolo[2,3-b]pyridin-5-yl)acetic acid] | 0.41 µM | 
11 | Cc1nc2c(ccn2Cc2ccc(-n3cncn3)cc2)c(-c2ccc3c(c2)CCCO3)c1C(OC(C)(C)C)C(=O)O (centres unmarked) [Example 62, 2-(1-(4-(1H-1,2,4-triazol-1-yl)benzyl)-4-(chroman-6-yl)-6-methyl-1H-pyrrolo[2,3-b]pyridin-5-yl)-2-(tert-butoxy)acetic acid] | 0.98 µM | 
12 | Cc1ccc(-c2c(C(OC(C)(C)C)C(=O)O)c(C)nc3c2ccn3Cc2ccc(C(F)(F)F)cc2)cc1 (centres unmarked) [Example 63, 2-(tert-butoxy)-2-(6-methyl-4-(p-tolyl)-1-(4-(trifluoromethyl)benzyl)-1H-pyrrolo[2,3-b]pyridin-5-yl)acetic acid] | 3.96 µM | 
13 | Cc1nc2c(ccn2Cc2ccc(OC(F)(F)F)cc2)c(-c2ccc3c(c2)CCCO3)c1C(OC(C)(C)C)C(=O)O (centres unmarked) [Example 64, 2-(tert-butoxy)-2-(4-(chroman-6-yl)-6-methyl-1-(4-(trifluoromethoxy)benzyl)-1H-pyrrolo[2,3-b]pyridin-5-yl)acetic acid] | 0.68 µM | 
14 | Cc1nc2c(ccn2CC2CCCCC2)c(-c2ccc3c(c2)CCCO3)c1C(OC(C)(C)C)C(=O)O (centres unmarked) [Example 65, 2-(tert-butoxy)-2-(4-(chroman-6-yl)-1-(cyclohexylmethyl)-6-methyl-1H-pyrrolo[2,3-b]pyridin-5-yl)acetic acid] | 0.59 µM | 
15 | Cc1nc2c(ccn2CC2CCN(C(=O)OC(C)(C)C)CC2)c(-c2ccc3c(c2)CCCO3)c1C(OC(C)(C)C)C(=O)O (centres unmarked) [Example 66, 2-(tert-butoxy)-2-(1-((1-(tert-butoxycarbonyl)piperidin-4-yl)methyl)-4-(chroman-6-yl)-6-methyl-1H-pyrrolo[2,3-b]pyridin-5-yl)acetic acid] | 7.34 µM | 
16 | Cc1nc2c(ccn2CC2CCOCC2)c(-c2ccc3c(c2)CCCO3)c1C(OC(C)(C)C)C(=O)O (centres unmarked) [Example 67, 2-(tert-butoxy)-2-(4-(chroman-6-yl)-6-methyl-1-((tetrahydro-2H-pyran-4-yl)methyl)-1H-pyrrolo[2,3-b]pyridin-5-yl)acetic acid] | 0.59 µM | 

Row | SMILES | IC50 [1] | IC50 [2]
17 | Cc1nc2c(ccn2CC2CCC2)c(-c2ccc3c(c2)CCCO3)c1C(OC(C)(C)C)C(=O)O (centres unmarked) [Example 68, 2-(tert-butoxy)-2-(4-(chroman-6-yl)-1-(cyclobutylmethyl)-6-methyl-1H-pyrrolo[2,3-b]pyridin-5-yl)acetic acid] | 0.72 µM | 
18 | Cc1ccc(-c2c(C(OC(C)(C)C)C(=O)O)c(C)nc3c2ccn3Cc2ccc(F)c(C(F)(F)F)c2)cc1 (centres unmarked) [Example 69, 2-(tert-butoxy)-2-(1-(4-fluoro-3-(trifluoromethyl)benzyl)-6-methyl-4-(p-tolyl)-1H-pyrrolo[2,3-b]pyridin-5-yl)acetic acid] | 0.25 µM | 
19 | Cc1ccc(-c2c(C(OC(C)(C)C)C(=O)O)c(C)nc3c2ccn3Cc2ccc(F)cc2C)cc1 (centres unmarked) [Example 70, 2-(tert-butoxy)-2-(1-(4-fluoro-2-methylbenzyl)-6-methyl-4-(p-tolyl)-1H-pyrrolo[2,3-b]pyridin-5-yl)acetic acid] | 0.04 µM | 
20 | Cc1nc2c(ccn2C(C)c2ccc(F)c(F)c2)c(-c2ccc3c(c2)CCCO3)c1C(OC(C)(C)C)C(=O)O (centres unmarked) [Example 71, 2-(tert-butoxy)-2-(4-(chroman-6-yl)-1-(1-(3,4-difluorophenyl)ethyl)-6-methyl-1H-pyrrolo[2,3-b]pyridin-5-yl)acetic acid] |  | 0.016 µM
21 | Cc1nc2c(ccn2C(C)c2ccc(F)c(F)c2)c(-c2ccc3c(c2)CCCO3)c1C(OC(C)(C)C)C(=O)O (centres unmarked) [Example 72, 2-(tert-butoxy)-2-(4-(chroman-6-yl)-1-(1-(3,4-difluorophenyl)ethyl)-6-methyl-1H-pyrrolo[2,3-b]pyridin-5-yl)acetic acid] |  | 0.19 µM
22 | Cc1ccc(-c2c(C(OC(C)(C)C)C(=O)O)c(C)nc3c2ccn3C2CCCCC2)cc1 (centres unmarked) [Example 73, 2-(tert-Butoxy)-2-[1-cyclohexyl-6-methyl-4-(4-methylphenyl)-1H-pyrrolo[2,3-b]pyridin-5-yl]acetic acid] | 1.31 µM | 
23 | Cc1ccc(-c2c(C(OC(C)(C)C)C(=O)O)c(C)nc3c2ccn3C2CCC(C)CC2)cc1 [Example 74, 2-(tert-butoxy)-2-(6-methyl-1-((1R,4R)-4-methylcyclohexyl)-4-(p-tolyl)-1H-pyrrolo[2,3-b]pyridin-5-yl)acetic acid] | 2.33 µM | 
24 | COCCn1ccc2c(-c3ccc(C)cc3)c(C(OC(C)(C)C)C(=O)O)c(C)nc21 (centres unmarked) [Example 75, 2-(tert-Butoxy)-2-(1-(2-methoxyethyl)-6-methyl-4-(p-tolyl)-1H-pyrrolo[2,3-b]pyridin-5-yl)acetic acid] | 4.1 µM | 
25 | Cc1ccc(-c2c(C(OC(C)(C)C)C(=O)O)c(C)nc3c2ccn3CC(C)(C)C)cc1 (centres unmarked) [Example 76, 2-(tert-butoxy)-2-(6-methyl-1-neopentyl-4-(p-tolyl)-1H-pyrrolo[2,3-b]pyridin-5-yl)acetic acid] | 0.9 µM | 
26 | Cc1ccc(-c2c(C(OC(C)(C)C)C(=O)O)c(C)nc3c2ccn3Cc2ccc(Cl)cc2)cc1 (centres unmarked) [Example 77, 2-(tert-Butoxy)-2-(1-(4-chlorobenzyl)-6-methyl-4-(p-tolyl)-1H-pyrrolo[2,3-b]pyridin-5-yl)acetic acid] | 0.65 µM | 
27 | Cc1ccc(-c2c(C(OC(C)(C)C)C(=O)O)c(C)nc3c2ccn3Cc2cc(F)cc(F)c2)cc1 (centres unmarked) [Example 78, 2-(tert-Butoxy)-2-(1-(3,5-difluorobenzyl)-6-methyl-4-(p-tolyl)-1H-pyrrolo[2,3-b]pyridin-5-yl)acetic acid] | 0.35 µM | 
28 | Cc1ccc(-c2c(C(OC(C)(C)C)C(=O)O)c(C)nc3c2ccn3CCOCc2ccccc2)cc1 (centres unmarked) [Example 79, 2-(1-(2-(benzyloxy)ethyl)-6-methyl-4-(p-tolyl)-1H-pyrrolo[2,3-b]pyridin-5-yl)-2-(tert-butoxy)acetic acid] | 4.87 µM | 
29 | Cc1ccc(-c2c(C(OC(C)(C)C)C(=O)O)c(C)nc3c2ccn3Cc2ccc3c(c2)OCO3)cc1 (centres unmarked) [Example 80, 2-(1-(Benzo[d][1,3]dioxol-5-ylmethyl)-6-methyl-4-(p-tolyl)-1H-pyrrolo[2,3-b]pyridin-5-yl)-2-(tert-butoxy)acetic acid] | 0.8 µM | 
30 | Cc1nc2c(ccn2[C@H](C)c2ccc(F)cc2)c(-c2ccc3c(c2)CCCO3)c1C(OC(C)(C)C)C(=O)O (some centres unmarked) [Example 81] | 0.03 µM | 
31 | Cc1nc2c(ccn2C2(c3ccc(F)cc3)CC2)c(-c2ccc3c(c2)CCCO3)c1C(OC(C)(C)C)C(=O)O (centres unmarked) [Example 82, 2-(tert-butoxy)-2-(4-(chroman-6-yl)-1-(1-(4-fluorophenyl)cyclopropyl)-6-methyl-1H-pyrrolo[2,3-b]pyridin-5-yl)acetic acid] | 0.3 µM | 
32 | Cc1nc2c(ccn2[C@@H](C)c2ccc(F)cc2)c(-c2ccc3c(c2)CCCO3)c1C(OC(C)(C)C)C(=O)O (some centres unmarked) [Example 83] | 0.123 µM | 
